4 compounds from ChEMBL document CHEMBL3044727, “Syntheses, spectral, crystallographic, antimicrobial, and antioxidant studies of few Mannich bases” (2012) can be followed below.

The subject of the first experiment is Radical scavenging activity. Description: Antioxidant activity assessed as DPPH radical scavenging activity. The experiment is classed as functional.
Settings: not given
(In general: DPPH is a stable violet radical that fades when it is reduced.)
Consider `O=C1CCC(=O)N1CNc1ccccn1`, for which the Activity result is “Dose-dependent effect”.

System in a further experiment: not listed separately
The experiment is described as follows: Antioxidant activity assessed as inhibition of linoleic acid peroxidation at 100 ug by FTC method. In kind it is functional.
Settings: not given
For the compound `O=C1CCC(=O)N1CNc1ccccn1`, the inhibition (commonly the percentage by which the read-out fell short of the control) came out at 20%.

As to VITAMIN E, the inhibition worked out at 29%.

Turning to `O=C1CCC(=O)N1CNc1ccccc1`, the inhibition worked out at 19%.

As for `O=C1O[C@H]([C@@H](O)CO)C(O)=C1O`, the inhibition amounted to 35%.

For another experiment, the system named is Bacillus subtilis. Description: Antimicrobial activity against Bacillus subtilis MTCC 4905 at 40 ug after 24 hr by streak plate method. The experiment is classed as functional. The note with it: MTCC 4905, 24 h, read-out: IZ.
As for `O=C1CCC(=O)N1CNc1ccccn1`, the zone of inhibition at 40 µg/disc was 5 mm.

System in another experiment: not listed separately
Description: Antioxidant activity assessed as inhibition of linoleic acid peroxidation at 125 ug by FTC method. In kind it is functional.
Settings: not given
For `O=C1CCC(=O)N1CNc1ccccn1`, the inhibition was found to be 21%.

On to VITAMIN E, for which the inhibition worked out at 33%.

As for `O=C1CCC(=O)N1CNc1ccccc1`, the inhibition came to 20%.

For the compound `O=C1O[C@H]([C@@H](O)CO)C(O)=C1O`, the inhibition turned out to be 37%.

In another experiment the test system is Radical scavenging activity. The experiment is described as follows: Antioxidant activity assessed as DPPH radical scavenging activity at 25 ug. The experiment is classed as functional.
Settings: not given
For the compound `O=C1CCC(=O)N1CNc1ccccn1`, the Activity turned out to be 17%.

On to VITAMIN E, for which the Activity came to 45%.

Take `O=C1CCC(=O)N1CNc1ccccc1`: the Activity stood at 10%.

`O=C1O[C@H]([C@@H](O)CO)C(O)=C1O`: the Activity was determined as 53%.

System in a further experiment: not listed separately
Description: Antioxidant activity assessed as inhibition of linoleic acid peroxidation at 75 ug by FTC method. The experiment is classed as functional.
Settings: not given
As for `O=C1CCC(=O)N1CNc1ccccn1`, the inhibition is 19%.

On to VITAMIN E, for which the inhibition was found to be 27%.

As for `O=C1CCC(=O)N1CNc1ccccc1`, the inhibition is 16%.

As for `O=C1O[C@H]([C@@H](O)CO)C(O)=C1O`, the inhibition worked out at 31.2%.

The next experiment has as its system Radical scavenging activity. The experiment is described as follows: Antioxidant activity assessed as DPPH radical scavenging activity at 75 ug. In kind it is functional.
Settings: not given
Regarding `O=C1CCC(=O)N1CNc1ccccn1`, the Activity turned out to be 22%.

For the compound VITAMIN E, the Activity is 49%.

Take `O=C1CCC(=O)N1CNc1ccccc1`: the Activity was 18%.

Take `O=C1O[C@H]([C@@H](O)CO)C(O)=C1O`: the Activity was determined as 57%.

System in a further experiment: not listed separately
Description: Antioxidant activity assessed as inhibition of linoleic acid peroxidation at 25 ug by FTC method. The experiment is classed as functional.
Settings: not given
For the compound `O=C1CCC(=O)N1CNc1ccccn1`, the inhibition was 18%.

VITAMIN E: the inhibition is 23%.

Consider `O=C1CCC(=O)N1CNc1ccccc1`, for which the inhibition is 12%.

For the compound `O=C1O[C@H]([C@@H](O)CO)C(O)=C1O`, the inhibition was found to be 27.2%.

A further experiment deals with Escherichia coli. The experiment is described as follows: Antimicrobial activity against Escherichia coli MTCC 3261 at 40 ug after 24 hr by streak plate method. The experiment is classed as functional. As to conditions: MTCC 3261, 24 h, read-out: IZ.
Regarding `O=C1CCC(=O)N1CNc1ccccn1`, the zone of inhibition at 40 µg/disc stood at 7 mm.

In the next experiment the test system is Escherichia coli. The experiment is described as follows: Antimicrobial activity against Escherichia coli MTCC 3261 at 60 ug after 24 hr by streak plate method. In kind it is functional. The note with it: MTCC 3261, 24 h, read-out: IZ.
For the compound `O=C1CCC(=O)N1CNc1ccccn1`, the zone of inhibition at 60 µg/disc came out at 12 mm.

For the next experiment, the system named is Aspergillus oryzae. The experiment is described as follows: Antimicrobial activity against Aspergillus oryzae MTCC 3782 at 60 ug after 48 hr by streak plate method. The experiment is classed as functional. The note with it: MTCC 3782, 48 h, read-out: IZ.
In the case of `O=C1CCC(=O)N1CNc1ccccn1`, the zone of inhibition at 60 µg/disc came out at 15 mm.

Another experiment relates to Radical scavenging activity. Description: Antioxidant activity assessed as DPPH radical scavenging activity at 50 ug. In kind it is functional.
Settings: not given
Regarding `O=C1CCC(=O)N1CNc1ccccn1`, the Activity was 18%.

Take VITAMIN E: the Activity was 47%.

Take `O=C1CCC(=O)N1CNc1ccccc1`: the Activity was found to be 14%.

As for `O=C1O[C@H]([C@@H](O)CO)C(O)=C1O`, the Activity stood at 54%.

System in the next experiment: not listed separately
The experiment is described as follows: Antioxidant activity assessed as inhibition of linoleic acid peroxidation by FTC method. In kind it is functional.
Settings: not given
Regarding `O=C1CCC(=O)N1CNc1ccccn1`, the inhibition result was “Dose-dependent effect”.

In the next experiment the test system is Bacillus subtilis. Description: Antimicrobial activity against Bacillus subtilis MTCC 4905 at 60 ug after 24 hr by streak plate method. The experiment is classed as functional. As to conditions: MTCC 4905, 24 h, read-out: IZ.
Regarding `O=C1CCC(=O)N1CNc1ccccn1`, the zone of inhibition at 60 µg/disc was found to be 8 mm.

System in the next experiment: not listed separately
The experiment is described as follows: Antioxidant activity assessed as inhibition of linoleic acid peroxidation at 50 ug by FTC method. The experiment is classed as functional.
Settings: not given
On to `O=C1CCC(=O)N1CNc1ccccn1`, for which the inhibition is 19%.

VITAMIN E: the inhibition was 26%.

On to `O=C1CCC(=O)N1CNc1ccccc1`, for which the inhibition was determined as 15%.

With `O=C1O[C@H]([C@@H](O)CO)C(O)=C1O`, the inhibition was found to be 27%.

For the next experiment, the system named is Radical scavenging activity. Description: Antioxidant activity assessed as DPPH radical scavenging activity at 125 ug. In kind it is functional.
Settings: not given
In the case of `O=C1CCC(=O)N1CNc1ccccn1`, the Activity worked out at 36%.

Consider VITAMIN E, for which the Activity is 51%.

`O=C1CCC(=O)N1CNc1ccccc1`: the Activity was 23%.

In the case of `O=C1O[C@H]([C@@H](O)CO)C(O)=C1O`, the Activity amounted to 59%.

In a further experiment the test system is Radical scavenging activity. Description: Antioxidant activity assessed as DPPH radical scavenging activity at 100 ug. The experiment is classed as functional.
Settings: not given
`O=C1CCC(=O)N1CNc1ccccn1`: the Activity came out at 27%.

Regarding VITAMIN E, the Activity was found to be 50%.

`O=C1CCC(=O)N1CNc1ccccc1`: the Activity is 20%.

As to `O=C1O[C@H]([C@@H](O)CO)C(O)=C1O`, the Activity turned out to be 58%.

A further experiment deals with Aspergillus fumigatus. The experiment is described as follows: Antimicrobial activity against Aspergillus fumigatus MTCC 6594 at 60 ug after 48 hr by streak plate method. The experiment is classed as functional. As to conditions: MTCC 6594, 48 h, read-out: IZ.
Consider `O=C1CCC(=O)N1CNc1ccccn1`, for which the zone of inhibition at 60 µg/disc was determined as 13 mm.

The test system of the next experiment is Aspergillus fumigatus. The experiment is described as follows: Antimicrobial activity against Aspergillus fumigatus MTCC 6594 at 40 ug after 48 hr by streak plate method. The note with it: MTCC 6594, 48 h, read-out: IZ. In kind it is functional.
On to `O=C1CCC(=O)N1CNc1ccccn1`, for which the zone of inhibition at 40 µg/disc was 7 mm.
